Laboratory results from PubChem BioAssay AID330 (DTP/NCI, 2004).
“And” between values parts separate entries of the source, which are not always exact repeats. Equal entries are not always repeated. Inconclusive results and toxic doses are left out. Rule for the calls: active = survival T/C of 150% or more; inactive = T/C below 125% in these data.

Tested on: P388 leukemia ip, CD2F1 mice, survival T/C
Assay: NCI In Vivo Anticancer Drug Screen. Data for tumor model P388 Leukemia (intraperitoneal) in CD2F1 (CDF1) mice
Conditions: endpoint: median survival time, higher = longer survival
Method in brief: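 Mice carrying the transplanted tumor received test compound or vehicle. Survival was recorded in each group, and the value is the treated-group measurement divided by that of the vehicle-treated control group.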

[1] = dose: 50.0 mg/kg/injection, schedule: Q01DX005 (ip), vehicle: saline with Tween-80
[2] = dose: 100.0 mg/kg/injection, schedule: Q01DX005 (ip), vehicle: saline with Tween-80
[3] = dose: 200.0 mg/kg/injection, schedule: Q01DX005 (ip), vehicle: saline with Tween-80
[4] = dose: 60.0 mg/kg/injection, schedule: Q01DX005 (ip), vehicle: saline
[5] = dose: 120.0 mg/kg/injection, schedule: Q01DX005 (ip), vehicle: Klucel (hydroxypropylcellulose) (HPC)
[6] = dose: 240.0 mg/kg/injection, schedule: Q01DX005 (ip), vehicle: Klucel (hydroxypropylcellulose) (HPC)
[7] = dose: 50.0 mg/kg/injection, schedule: Q01DX005 (ip), vehicle: Klucel (hydroxypropylcellulose) (HPC)
[8] = dose: 100.0 mg/kg/injection, schedule: Q01DX005 (ip), vehicle: Klucel (hydroxypropylcellulose) (HPC)
[9] = dose: 200.0 mg/kg/injection, schedule: Q01DX005 (ip), vehicle: Klucel (hydroxypropylcellulose) (HPC)
[10] = dose: 50.0 mg/kg/injection, schedule: Q01DX005 (ip), vehicle: saline
[11] = dose: 100.0 mg/kg/injection, schedule: Q01DX005 (ip), vehicle: saline
[12] = dose: 200.0 mg/kg/injection, schedule: Q01DX005 (ip), vehicle: saline

Measured: T/C

CC(=O)NC(CCSSCCC(NC(C)=O)C(=O)ON1C(=O)CCC1=O)C(=O)ON1C(=O)CCC1=O (centres undefined)
inactive: [1] 104 % of control | [2] 105 % of control | [3] 104 % of control

CC(=O)O/N=C(C)/C(C)=N/Nc1ccccc1
inactive: [1] 93 % of control | [2] 89 % of control | [3] 87 % of control

Nc1ccc(S(=O)(=O)n2c(=O)oc3ccc(Br)cc32)cc1
inactive: dose: 100.0 mg/kg/injection, schedule: Q04DX002 (ip), vehicle: Klucel (hydroxypropylcellulose) (HPC) 93 % of control | dose: 200.0 mg/kg/injection, schedule: Q04DX002 (ip), vehicle: Klucel (hydroxypropylcellulose) (HPC) 90 % of control | dose: 400.0 mg/kg/injection, schedule: Q04DX002 (ip), vehicle: Klucel (hydroxypropylcellulose) (HPC) 93 % of control

NS(=O)(=O)c1ccc(N=NC2C(=O)N(c3ccccc3)C(=S)N(c3ccccc3)C2=O)cc1
inactive: dose: 60.0 mg/kg/injection, schedule: Q01DX005 (ip), vehicle: Klucel (hydroxypropylcellulose) (HPC) 100 % of control | [4] 106 % of control | [5] 100 % of control | dose: 120.0 mg/kg/injection, schedule: Q01DX005 (ip), vehicle: saline 95 % of control | [6] 91 % of control | dose: 240.0 mg/kg/injection, schedule: Q01DX005 (ip), vehicle: saline 92 % of control

Cc1cc2c3c(c1)C(C(F)(F)F)(C(F)(F)F)OI3OC2(C(F)(F)F)C(F)(F)F
inactive: dose: 25.0 mg/kg/injection, schedule: Q01DX005 (ip), vehicle: Klucel (hydroxypropylcellulose) (HPC) 95 % of control | [7] 95 % of control | [8] 96 % of control | [9] 97 % of control

Clc1ncn[nH]1
inactive: dose: 100.0 mg/kg/injection, schedule: Q01DX001 (ip), vehicle: Klucel (hydroxypropylcellulose) (HPC) 99 % of control | dose: 200.0 mg/kg/injection, schedule: Q01DX001 (ip), vehicle: Klucel (hydroxypropylcellulose) (HPC) 106 % of control | dose: 400.0 mg/kg/injection, schedule: Q01DX001 (ip), vehicle: Klucel (hydroxypropylcellulose) (HPC) 122 % of control

CN(C)[C@@H]1C(=O)C(C(N)=O)=C(O)[C@@]2(O)C(=O)C3=C(O)c4c(O)ccc(Cl)c4[C@@](C)(O)[C@H]3C[C@@H]12.[Cl][Sb]([Cl])[Cl]
inactive: dose: 12.5 mg/kg/injection, schedule: Q01DX005 (ip), vehicle: saline with Tween-80 108 % of control | [1] 116 % of control and 120 % of control | [2] 104 % of control

CC(C)(C)c1cc(C(=O)O)c(Br)c(C(=O)O)c1
inactive: dose: 50.0 mg/kg/injection, schedule: Q01DX009 (ip), vehicle: saline 97 % of control | dose: 100.0 mg/kg/injection, schedule: Q01DX009 (ip), vehicle: saline 102 % of control | dose: 200.0 mg/kg/injection, schedule: Q01DX009 (ip), vehicle: saline 100 % of control

OCCCC1CCCCN1 (centres undefined)
inactive: dose: 50.0 mg/kg/injection, schedule: Q01DX001 (ip), vehicle: saline 107 % of control | dose: 200.0 mg/kg/injection, schedule: Q01DX001 (ip), vehicle: saline 100 % of control

Cc1cc(S(=O)(=O)O)ccc1N=c1ccc2c(-c3ccccc3C(=O)O)c3ccc(Nc4ccccc4C)cc3oc-2c1
inactive: [10] 88 % of control | [11] 105 % of control | [12] 91 % of control

C=C1C(=O)OC2CC3(CO3)C3CC(OC(C)=O)C(=C)C3(O)CC12 (centres undefined)
inactive: dose: 8.0 mg/kg/injection, schedule: Q01DX009 (ip), vehicle: Klucel (hydroxypropylcellulose) (HPC) 99 % of control | dose: 16.0 mg/kg/injection, schedule: Q01DX009 (ip), vehicle: Klucel (hydroxypropylcellulose) (HPC) 116 % of control | dose: 32.0 mg/kg/injection, schedule: Q01DX009 (ip), vehicle: Klucel (hydroxypropylcellulose) (HPC) 119 % of control | dose: 64.0 mg/kg/injection, schedule: Q01DX009 (ip), vehicle: Klucel (hydroxypropylcellulose) (HPC) 114 % of control

CC(CC(=O)O)C(C)(C#N)C(=O)O (centres undefined)
inactive: [10] 102 % of control and 110 % of control | [11] 91 % of control and 96 % of control | [12] 96 % of control

O/N=C1/CN(CCN2CC(NO)=N/C(=N\O)C2)CC(NO)=N1
inactive: [7] 90 % of control | [8] 89 % of control | [9] 89 % of control

[Cu+2].[O-]/C(=N\N=C/c1ccco1)c1ccccc1O.[O-]/C(=N\N=C/c1ccco1)c1ccccc1O.[OH3+].[OH3+]
inactive: dose: 400.0 mg/kg/injection, schedule: Q04DX002 (ip), vehicle: saline with Tween-80 93 % of control

CN(c1ccccc1)C(C#N)c1n[nH]c(=O)[nH]1 (centres undefined)
inactive: dose: 25.0 mg/kg/injection, schedule: Q04DX002 (ip), vehicle: saline with Tween-80 100 % of control | dose: 50.0 mg/kg/injection, schedule: Q04DX002 (ip), vehicle: saline with Tween-80 100 % of control | dose: 100.0 mg/kg/injection, schedule: Q04DX002 (ip), vehicle: saline with Tween-80 93 % of control

CCOC(C[Se]c1ccccc1)OCC(F)(F)F (centres undefined)
inactive: dose: 50.0 mg/kg/injection, schedule: Q04DX003 (ip), vehicle: saline with Tween-80 90 % of control | dose: 100.0 mg/kg/injection, schedule: Q04DX003 (ip), vehicle: saline with Tween-80 102 % of control | dose: 200.0 mg/kg/injection, schedule: Q04DX003 (ip), vehicle: saline with Tween-80 111 % of control

Cc1ccc(S(=O)(=O)CCCCS(=O)(=O)c2ccc(C)cc2)cc1
inactive: dose: 60.0 mg/kg/injection, schedule: Q01DX005 (ip), vehicle: saline with Tween-80 107 % of control | dose: 120.0 mg/kg/injection, schedule: Q01DX005 (ip), vehicle: saline with Tween-80 104 % of control | dose: 240.0 mg/kg/injection, schedule: Q01DX005 (ip), vehicle: saline with Tween-80 97 % of control

COC(=O)c1c(C(N)=O)c(C)n(NC(N)=O)c1C
inactive: [1] 117 % of control | [2] 107 % of control | [3] 108 % of control

COc1ccccc1NC(=O)C1=C(C)NC(C)=C(C(=O)Nc2ccccc2OC)C1c1ccc(Cl)cc1Cl
inactive: [1] 103 % of control | [2] 103 % of control | [3] 91 % of control

CCC1OC2(C)C(O)C(/C=C/C=C/C=C/c3oc(=O)cc(OC)c3C)OC1(C)C2OC(C)=O (centres undefined)
inactive: dose: 0.5 mg/kg/injection, schedule: Q01DX009 (ip), vehicle: Klucel (hydroxypropylcellulose) (HPC) 109 % of control | dose: 1.0 mg/kg/injection, schedule: Q01DX009 (ip), vehicle: Klucel (hydroxypropylcellulose) (HPC) 105 % of control | dose: 2.0 mg/kg/injection, schedule: Q01DX009 (ip), vehicle: Klucel (hydroxypropylcellulose) (HPC) 100 % of control

C/C(=N/N=C(N)N)c1cn(C(=N)N)nc1C
inactive: dose: 7.5 mg/kg/injection, schedule: Q01DX005 (ip), vehicle: saline 100 % of control and 101 % of control | dose: 15.0 mg/kg/injection, schedule: Q01DX005 (ip), vehicle: saline 109 % of control and 95 % of control | dose: 30.0 mg/kg/injection, schedule: Q01DX005 (ip), vehicle: saline 101 % of control and 95 % of control | [4] 101 % of control and 107 % of control | [5] 99 % of control | [6] 117 % of control

Clc1n[nH]c(Cl)n1
inactive: dose: 100.0 mg/kg/injection, schedule: Q01DX009 (ip), vehicle: saline with Tween-80 95 % of control
